According to publication PMC7235250, “Estimation of dietary ^14C dose coefficient using ^13C-labelled compound administration analysis” (Scientific Reports, 2020):
One block for each compound: values may come before it.

Legend:
[1] = Second experiment: ^13C-labelled compounds once daily for 4 successive days, ^13C/^12C ratio in breath and hair, metabolic model; details: oral once daily for 4 days; for Rr, recovery ratio of administered ^13C / dB, distribution ratio of ^13C into breath pathway to administered ^13C / dBf, distribution ratio into fast compartment of breath pathway / dO, distribution ratio of ^13C into other* pathway (hair) to administered ^13C / dOf, distribution ratio into fast compartment of other* pathway / kBf, excretion rate constant, fast compartment, breath pathway / kBs, excretion rate constant, slow compartment, breath pathway / kOf, excretion rate constant, fast compartment, other* pathway / kOs, excretion rate constant, slow compartment, other* pathway: mean
Source text: The rate of ^13C excretion for each pathway (Em, g d^−1) is given by the following equations:1 Em=∑nkmndmdmnkm/km−kmn(e^−kmnt−e^−kmt) where, m is the excretion pathway symbol of B, U, F, and O corresponding to the excretion pathways of breath, urine, faeces, and other*, respectively; n is the symbol of f and s corresponding to the compartments with fast and slow metabolism, respectively; km and kmn are the excretion rate constants from compartment Cm and Cmn, respectively; dm is the distribution ratio of ^13C into compartment Cm to the administered ^13C; dmn is the distribution ratio of ^13C into compartment Cmn to ^13C from compartment Cm; Rr is the recovery ratio of administered ^13C. The sum of distribution ratios of compartments with fast and slow metabolism was fixed to unity (i.e. dBf + dBs = 1).
Additional doses of ^13C-labelled compounds were administered on day 160 for marking the ^13C/^12C ratio of hair samples and the volunteers freely ate meals without calorific restrictions.
In the first experiment, breath, urine, faeces, and hair samples were periodically collected and the ^13C/^12C ratio was analysed following the procedure described in a previous paper. […] Faecal samples were collected once before day 0 and at every defecation from day 0 to 14. On day 0, additional breath and urine samples were collected frequently after administration. […] According to the section number of the two peaks, the experimental date for each section between the two peaks was determined under an assumption of uniform hair growth.
Some volunteers also dropped out of the sampling procedure for various reasons.
The detailed procedures used were described in a previous published paper. When urine and hair samples had no increase phase, the values of kU and kO were fixed to those of kB obtained from the same volunteers in the regression analysis.

[2] = design: method as in doi:10.1093/oxfordjournals.rpd.a032384; details: rats, 100 days after administration; cited from earlier work
[3] = design: method as in PMID 14371643; details: intravenous administration; cited from earlier work
[4] = 50-year cumulative body burden and committed effective dose / dose coefficient calculated with the metabolic models; design: species or system human; details: orally ingested 1 g of ^13C
Source text: The dose coefficients obtained with each assumption are called non conservative estimation (ER) and conservative estimation (EC) hereafter. The recovered fraction was assumed to be distributed uniformly in the whole-body carbon with a tissue weighting factor of unity. […] In addition to these estimations, we calculated the most conservative estimation (EX) adopting the tissue weighting factor of unity for unrecovered carbon. We solely adopted the value for the maximal estimation.
The 50-year cumulative body burden of ^14C after a single ingestion of 1 Bq of ^14C in each compound (BC Bq d) was calculated using the metabolic model and its parameters described above, under the assumption of the same metabolic behaviour of ^13C and ^14C. […] The total cumulative burden was derived as a sum of burdens from the recoverable and unrecoverable fractions with designated proportions Rr and 1−Rr, respectively. For the recoverable fraction, the burden was calculated using following equation:2 BC≈∑mdm/km+∑m∑ndmdmn/kmn where, every dm was divided by Rr when Rr was larger than unity.
The 50-year committed effective dose (Sv) from ingestion of 1 Bq ^14C was calculated from the 50-year cumulative burden by using the ratio of absorbed dose to ^14C radioactivity, radiation weighting factor of beta-ray from ^14C (1.0) and tissue weighting factors. […]

SMILES: NCC(=O)O [Glycine, glycine]
Rr, recovery ratio of administered ^13C ([1]; All (both sexes)): 1.0
dB, distribution ratio of ^13C into breath pathway to administered ^13C ([1]; All (both sexes)): 0.80
dBf, distribution ratio into fast compartment of breath pathway ([1]; All (both sexes)): 0.36
dO, distribution ratio of ^13C into other* pathway (hair) to administered ^13C ([1]; All (both sexes)): 0.18
dOf, distribution ratio into fast compartment of other* pathway ([1]; All (both sexes)): 0.50
kBf, excretion rate constant, fast compartment, breath pathway ([1]; All (both sexes)): 11 day⁻¹
kBs, excretion rate constant, slow compartment, breath pathway ([1]; All (both sexes)): 0.17 day⁻¹
kOf, excretion rate constant, fast compartment, other* pathway ([1]; All (both sexes)): 0.10 day⁻¹
kOs, excretion rate constant, slow compartment, other* pathway ([1]; All (both sexes)): 0.0086 day⁻¹
Rr, recovery ratio of administered ^13C ([1]; Female): 1.0
dB, distribution ratio of ^13C into breath pathway to administered ^13C ([1]; Female): 0.84
dBf, distribution ratio into fast compartment of breath pathway ([1]; Female): 0.36
dO, distribution ratio of ^13C into other* pathway (hair) to administered ^13C ([1]; Female): 0.18
dOf, distribution ratio into fast compartment of other* pathway ([1]; Female): 0.52
kBf, excretion rate constant, fast compartment, breath pathway ([1]; Female): 11 day⁻¹
kBs, excretion rate constant, slow compartment, breath pathway ([1]; Female): 0.18 day⁻¹
kOf, excretion rate constant, fast compartment, other* pathway ([1]; Female): 0.098 day⁻¹
kOs, excretion rate constant, slow compartment, other* pathway ([1]; Female): 0.0091 day⁻¹
Rr, recovery ratio of administered ^13C ([1]; Male): 0.93
dB, distribution ratio of ^13C into breath pathway to administered ^13C ([1]; Male): 0.74
dBf, distribution ratio into fast compartment of breath pathway ([1]; Male): 0.37
dO, distribution ratio of ^13C into other* pathway (hair) to administered ^13C ([1]; Male): 0.18
dOf, distribution ratio into fast compartment of other* pathway ([1]; Male): 0.47
kBf, excretion rate constant, fast compartment, breath pathway ([1]; Male): 9.7 day⁻¹
kBs, excretion rate constant, slow compartment, breath pathway ([1]; Male): 0.16 day⁻¹
kOf, excretion rate constant, fast compartment, other* pathway ([1]; Male): 0.11 day⁻¹
kOs, excretion rate constant, slow compartment, other* pathway ([1]; Male): 0.0080 day⁻¹
estimated distribution ratio of ^13C for the breath pathway (dB) ([1]; mean ± S.D., both sexes): 80 ± 9%

SMILES: CCCCCCCC/C=C\CCCCCCCC(=O)O [^14C-labelled oleic acid, oleic acid]
^14C concentration in adipose tissue relative to that of palmitic acid [2]: three times higher

SMILES: N[14CH2]C(=O)O [glycine-[2-^14C]]
recovery through the breath pathway [3]: 86%

contribution of faeces pathway to 50-year cumulative body burden [4]: 0.034 ± 0.070%
contribution of urine pathway to 50-year cumulative body burden [4]: 0.038 ± 0.030%
SMILES: CCCCCCCCCCCCCCCC(=O)O [palmitic acid]
